Columns and labels:
[1] = system: Puccinia recondita f. sp. tritici; assay: Test C: test suspension sprayed on wheat seedlings, inoculated next day with Puccinia recondita f. sp. tritici (wheat leaf rust), visual disease rating; assay type: in vivo; settings: for Test C rating (% disease control): relative to the controls
Description: General protocol for preparing test suspensions for Tests A-C: the test compounds were first dissolved in acetone in an amount equal to 3% of the final volume and then suspended at the desired concentration (in ppm) in acetone and purified water (50/50 mix by volume) containing 250 ppm of the surfactant PEG400 (polyhydric alcohol esters). The resulting test suspensions were then used in Tests A-C. The test suspension was sprayed to the point of run-off on wheat seedlings. The following day the seedlings were inoculated with a spore suspension of Puccinia recondita f. sp. tritici; (the causal agent of wheat leaf rust) and incubated in a saturated atmosphere at 20° C., for 24 h, and then moved to a growth chamber at 20° C., for 6 days, after which time visual disease ratings were made. […] A dash (-) indicates the compound was not tested. The test suspensions were sprayed at the concentration listed in the column “Rate in ppm”, unless otherwise indicated.

Phakopsora pachyrhizi = assay: Test A: test suspension sprayed on soybean seedlings, inoculated next day with Phakopsora pachyrhizi (Asian soybean rust), visual disease rating; assay type: in vivo; settings: for Test A rating (% disease control): relative to the controls
Description: General protocol for preparing test suspensions for Tests A-C: the test compounds were first dissolved in acetone in an amount equal to 3% of the final volume and then suspended at the desired concentration (in ppm) in acetone and purified water (50/50 mix by volume) containing 250 ppm of the surfactant PEG400 (polyhydric alcohol esters). The resulting test suspensions were then used in Tests A-C. The test suspension was sprayed to the point of run-off on soybean seedlings. The following day the seedlings were inoculated with a spore suspension of Phakopsora pachyrhizi (the causal agent of Asian soybean rust) and incubated in a saturated atmosphere at 22° C., for 24 h and then moved to a growth chamber at 22° C., for 8 days, after which time visual disease ratings were made. […] A dash (-) indicates the compound was not tested. The test suspensions were sprayed at the concentration listed in the column “Rate in ppm”, unless otherwise indicated.

| Compound | Test C rating (% disease control) ([1]; Rate 10 ppm test suspension) [%] | Test A rating (% disease control) (Phakopsora pachyrhizi; Rate 10 ppm test suspension) [%] | further results |
| --- | --- | --- | --- |
| CC(=O)NN=Cc1cnn(Cc2ccc(-c3noc(C(F)(F)F)n3)cc2)c1 [compound 389] | 100 | 100 |  |
| FC(F)(F)c1nc(-c2ccc(Cn3cc4c(I)ccnc4n3)cc2)no1 [compound 445] | 99 | 100 |  |
| CCON=Cc1cnn(Cc2ccc(-c3noc(C(F)(F)F)n3)cc2)c1 [compound 384] | 100 | 100 |  |
| O=C(OCCBr)c1cnn(Cc2ccc(-c3noc(C(F)(F)F)n3)cc2)c1 [compound 478] |  |  | Test C rating (% disease control) ([1]; Rate 50 ppm test suspension): 19%; Test A rating (% disease control) (Phakopsora pachyrhizi; Rate 50 ppm test suspension): 81% |
| COC(=O)c1cnn(Cc2ccc(-c3noc(C(F)(F)F)n3)s2)c1 [compound 188] |  |  | Test C disease control rating ([1]; 10 ppm test suspension): 100%; Test A disease control rating (Phakopsora pachyrhizi; 10 ppm test suspension): 100% |
| N#Cc1cnn(CCCc2ccc(-c3noc(C(F)(F)F)n3)cc2)c1 [compound 435] | 74 | 100 |  |
| FC(F)(F)c1nc(-c2ccc(Cn3cc(I)cn3)cc2)no1 [compound 383] | 68 | 71 |  |
| O=C(OCc1ccccc1)c1cnn(Cc2ccc(-c3noc(C(F)(F)F)n3)cc2)c1 [compound 412] | 100 | 100 |  |
| CN(C)C(=O)c1cnn(CCCc2ccc(-c3noc(C(F)(F)F)n3)cc2)c1 [compound 406] | 93 | 100 |  |
| COC(=O)c1cnn(CCCc2ccc(-c3noc(C(F)(F)F)n3)cc2)c1 [compound 436] | 74 | 100 |  |
| COCCCOC(=O)c1cnn(Cc2ccc(-c3noc(C(F)(F)F)n3)cc2)c1 [compound 474] | 100 | 100 |  |
| CCOC(=O)C1(Cc2ccc(-c3noc(C(F)(F)F)n3)cc2)CCNC1=O (stereo not shown) [compound 431] |  |  | Test C rating (% disease control) ([1]; Rate 50 ppm test suspension): 98%; Test A rating (% disease control) (Phakopsora pachyrhizi; Rate 50 ppm test suspension): 99% |
| O=C(NCCCl)c1coc(Cc2ccc(-c3noc(C(F)(F)F)n3)cc2)n1 [compound 204] |  |  | Test C disease control rating ([1]; 10 ppm test suspension): 100%; Test A disease control rating (Phakopsora pachyrhizi; 10 ppm test suspension): 100% |
| 3-[5-[(4-bromo-1H-pyrazol-1-yl)methyl]-2-thienyl]-5-(trifluoromethyl)-1,2,4-oxadiazole [Compound 71] |  |  | Test C disease control rating ([1]; 10 ppm test suspension): 74%; Test A disease control rating (Phakopsora pachyrhizi; 10 ppm test suspension): 100% |
| CCCOC(=O)c1cnn(Cc2cc(OC)c(-c3noc(C(F)(F)F)n3)s2)c1 [compound 439] | 0 | 0 |  |
| CCOC(=O)c1cnn(Cc2ccc3cc(-c4noc(C(F)(F)F)n4)ccc3c2)c1 [compound 457] |  |  | Test C rating (% disease control) ([1]; Rate 50 ppm test suspension): 0%; Test A rating (% disease control) (Phakopsora pachyrhizi; Rate 50 ppm test suspension): 77% |
| Cc1ccc(C(O)c2ccc(-c3noc(C(F)(F)F)n3)cc2)cc1 (stereo not shown) [compound 501] | 0 | 100 |  |
| CS(=O)(=O)Nc1cnn(Cc2ccc(-c3noc(C(F)(F)F)n3)cc2)c1 [compound 442] | 0 | 44 |  |
| FC(F)(F)c1nc(-c2ccc(Cn3ncc4c(I)ccnc43)cc2)no1 [compound 444] | 86 | 96 |  |
| C#CCON=Cc1cnn(Cc2ccc(-c3noc(C(F)(F)F)n3)cc2)c1 [compound 387] | 99 | 100 |  |
| CC(=O)Nc1cnn(Cc2ccc(-c3noc(C(F)(F)F)n3)cc2)c1 [compound 441] | 9 | 87 |  |
| O=C(NCc1ccccc1)c1cnn(Cc2ccc(-c3noc(C(F)(F)F)n3)cc2)c1 [compound 484] | 100 | 100 |  |

| Compound | Test C rating (% disease control) ([1]; Rate 10 ppm test suspension) [%] | Test A rating (% disease control) (Phakopsora pachyrhizi; Rate 10 ppm test suspension) [%] | further results |
| --- | --- | --- | --- |
| C=CCON=Cc1cnn(Cc2ccc(-c3noc(C(F)(F)F)n3)cc2)c1 [compound 386] | 100 | 100 |  |
| CCOC(=O)c1cnn(CCCc2ccc(-c3noc(C(F)(F)F)n3)cc2)c1 [compound 428] |  |  | Test C rating (% disease control) ([1]; Rate 50 ppm test suspension): 100%; Test A rating (% disease control) (Phakopsora pachyrhizi; Rate 50 ppm test suspension): 100% |
| CCOC(=O)c1cnn(CCCc2ccc(-c3noc(C(F)(F)F)n3)cc2)c1 [compound 437] | 86 | 100 |  |
| N#Cc1cccn(Cc2ccc(-c3noc(C(F)(F)F)n3)cc2)c1=O [compound 417] | 100 | 100 |  |
| O=C(OCCN1CCOCC1)c1cnn(Cc2ccc(-c3noc(C(F)(F)F)n3)cc2)c1 [compound 475] | 91 | 100 |  |
| CCN(CC)C(=O)C1=NOC(Cc2ccc(-c3noc(C(F)(F)F)n3)s2)C1 (racemic) [compound 430] |  |  | Test C rating (% disease control) ([1]; Rate 50 ppm test suspension): 100%; Test A rating (% disease control) (Phakopsora pachyrhizi; Rate 50 ppm test suspension): 100% |
| CSCC(=O)COC(=O)c1cnn(Cc2ccc(-c3noc(C(F)(F)F)n3)cc2)c1 [compound 434] | 98 | 100 |  |
| CCOC(=O)C1(Cc2ccc(-c3noc(C(F)(F)F)n3)cc2)CCCNC1=O (stereo not shown) [compound 432] |  |  | Test C rating (% disease control) ([1]; Rate 50 ppm test suspension): 92%; Test A rating (% disease control) (Phakopsora pachyrhizi; Rate 50 ppm test suspension): 100% |
| FC(F)(F)c1nc(-c2ccc(Cn3cc4ncccc4n3)cc2)no1 [compound 409] | 100 | 100 |  |
| CCCON=Cc1cnn(Cc2ccc(-c3noc(C(F)(F)F)n3)cc2)c1 [compound 385] | 100 | 100 |  |
| FC(F)(F)c1nc(-c2ccc(Cn3ccc4ncccc43)cc2)no1 [Compound 136, 1-[[4-[5-(trifluoromethyl)-1,2,4-oxadiazol-3-yl]phenyl]methyl]-1H-pyrrolo[3,2-h]pyridine] |  |  | Test C disease control rating ([1]; 10 ppm test suspension): 68%; Test C disease control rating ([1]; 50 ppm test suspension): 94%; Test A disease control rating (Phakopsora pachyrhizi; 10 ppm test suspension): 100%; Test A disease control rating (Phakopsora pachyrhizi; 50 ppm test suspension): 100% |
| CN(C)C(=O)C1=NOC(Cc2ccc(-c3noc(C(F)(F)F)n3)s2)C1 (racemic) [compound 460] |  |  | Test C rating (% disease control) ([1]; Rate 50 ppm test suspension): 99%; Test A rating (% disease control) (Phakopsora pachyrhizi; Rate 50 ppm test suspension): 100% |
| CCOC(=O)c1cc(C)n(Cc2ccc(-c3noc(C(F)(F)F)n3)cc2)n1 [compound 110] |  |  | Test C disease control rating ([1]; 10 ppm test suspension): 91%; Test A disease control rating (Phakopsora pachyrhizi; 10 ppm test suspension): 100% |
| COC(=O)c1nccn(Cc2ccc(-c3noc(C(F)(F)F)n3)cc2)c1=O [compound 423] | 80 | 86 |  |
| FC(F)(F)c1nc(-c2ccc(Cn3ncc4cc(Br)cnc43)cc2)no1 [compound 413] | 68 | 100 |  |
| Nc1ncnc2c1cnn2Cc1ccc(-c2noc(C(F)(F)F)n2)cc1 [compound 407] | 100 | 100 |  |
| CCOC(=O)c1cnn(Cc2ccc(-c3noc(C(F)(F)F)n3)cn2)c1 [compound 424] | 96 | 100 |  |
| O=C(O)C1=NOC(Cc2ccc(-c3noc(C(F)(F)F)n3)s2)C1 (racemic) [compound 367] |  |  | Test C disease control rating ([1]; 50 ppm test suspension): 67%; Test A disease control rating (Phakopsora pachyrhizi; 50 ppm test suspension): 96% |
| Nc1nn(Cc2ccc(-c3noc(C(F)(F)F)n3)cc2)c2ncccc12 [compound 446] | 86 | 99 |  |
| CCOC(=O)C1=NOC(Cc2ccc(-c3noc(C(F)(F)F)n3)s2)C1 (racemic) [compound 366] |  |  | Test C disease control rating ([1]; 50 ppm test suspension): 100%; Test A disease control rating (Phakopsora pachyrhizi; 50 ppm test suspension): 100% |
| CCCOC(=O)c1cnn(C(C)c2ccc(-c3noc(C(F)(F)F)n3)s2)c1 (racemic) [compound 493] | 100 | 100 |  |

— patent US12606548B2, “Fungicidal oxadiazoles” (FMC CORPORATION, priority 2019, dated 2026)
